Laboratory results published in ChEMBL document CHEMBL5696442, “Discovery of type II inhibitors of TGFβ-activated kinase 1 (TAK1) and mitogen-activated protein kinase kinase kinase kinase 2 (MAP4K2)” (J Med Chem, 2015).
Active and inactive are the calls of the source. The rule behind the calls is not given here.

Tests used:
[1] = target: Tyrosine-protein kinase ABL2 (Homo sapiens, UniProt P42684); test: Inhibition of ARG (unknown origin) ACT labeling site by KiNativ Profiling analysis
[2] = target: Calcium/calmodulin-dependent protein kinase type II subunit beta (Homo sapiens) (UniProt Q13554); test: Inhibition of CAMK2B (unknown origin) at 10 uM by Ambit Kinomescan binding assay
[3] = target: Serine/threonine-protein kinase N2 (Homo sapiens) (UniProt Q16513); test: Inhibition of PKN2 (unknown origin) at 10 uM by Ambit Kinomescan binding assay
[4] = target: Tyrosine-protein kinase CSK (Homo sapiens, UniProt P41240); test: Inhibition of CSK ACT labeling site harbouring VSDFGLTKEASSTQDTGKLPVK in human A-375 cells at 0.5 uM by KiNativ Profiling analysis relative to control; type: cell-based
[5] = target: Serine/threonine-protein kinase 38-like (Homo sapiens) (UniProt Q9Y2H1); test: Inhibition of NDR2 Lys1 labeling site harbouring DTGHIYAMKILR in human A-375 cells at 0.5 uM by KiNativ Profiling analysis relative to control; type: cell-based
[6] = target: Mitogen-activated protein kinase kinase kinase kinase 4 (Homo sapiens, UniProt O95819); test: Inhibition of ZC1/HGK Lys2 labeling site in human A-375 cells at 0.5 uM by KiNativ Profiling analysis relative to control; type: cell-based
[7] = target: T1, Serine/threonine-protein kinase Chk1 (Homo sapiens) (UniProt O14757); test: Inhibition of CHK1 Lys2 labeling site harbouring DIKPENLLLDER in human A-375 cells at 0.05 uM by KiNativ Profiling analysis relative to control; type: cell-based
T1 sequence (whole entry): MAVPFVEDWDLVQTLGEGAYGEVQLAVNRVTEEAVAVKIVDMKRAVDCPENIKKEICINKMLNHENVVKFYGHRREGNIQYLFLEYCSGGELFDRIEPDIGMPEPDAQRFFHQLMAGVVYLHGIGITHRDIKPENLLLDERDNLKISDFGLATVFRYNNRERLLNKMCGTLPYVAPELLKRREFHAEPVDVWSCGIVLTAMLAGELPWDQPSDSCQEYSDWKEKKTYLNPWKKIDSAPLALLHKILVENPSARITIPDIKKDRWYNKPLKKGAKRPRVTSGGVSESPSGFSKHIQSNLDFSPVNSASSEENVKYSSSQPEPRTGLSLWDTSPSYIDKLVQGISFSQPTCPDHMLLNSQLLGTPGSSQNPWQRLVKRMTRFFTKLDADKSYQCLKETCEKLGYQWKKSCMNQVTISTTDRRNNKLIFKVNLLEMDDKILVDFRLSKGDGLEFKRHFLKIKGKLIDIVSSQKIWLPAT

[8] = target: T1, Serine/threonine-protein kinase Chk1 (Homo sapiens); test: Inhibition of CHK1 Lys2 labeling site harbouring DIKPENLLLDERDNLK in human A-375 cells at 0.05 uM by KiNativ Profiling analysis relative to control; type: cell-based
[9] = target: Serine/threonine-protein kinase Nek7 (Homo sapiens) (UniProt Q8TDX7); test: Inhibition of NEK7 ACT labeling site in human A-375 cells at 0.05 uM by KiNativ Profiling analysis relative to control; type: cell-based
[10] = target: Rho-associated protein kinase 1 (Homo sapiens) (UniProt Q13464); test: Inhibition of ROCK1 Lys2 labeling site in human A-375 cells at 0.05 uM by KiNativ Profiling analysis relative to control; type: cell-based
[11] = target: Wee1-like protein kinase (Homo sapiens) (UniProt P30291); test: Inhibition of Wee1 K2 labeling site in human Huh-7 cells at 10 uM by KiNativ Profiling analysis relative to control; type: cell-based
[12] = target: Ribosomal protein S6 kinase alpha-3 (Homo sapiens) (UniProt P51812); test: Inhibition of RSK2 Domain 2 K2 labeling site harbouring DLKPSNILYVDESGNPESIR in human Huh-7 cells at 1 uM by KiNativ Profiling analysis relative to control; type: cell-based
[13] = target: Cyclin-dependent kinase 2 (Homo sapiens) (UniProt P24941); test: Inhibition of CDK2 Lys2 labeling site harbouring VLHRDLKPQNLLINTEGAIK in human Huh-7 cell lysate at 1 uM by KiNativ Profiling analysis relative to control; type: subcellular
[14] = target: T2, Scaffold protein ILK (Homo sapiens) (UniProt Q13418); test: Inhibition of ILK Lys1 labeling site in human Huh-7 cell lysate at 1 uM by KiNativ Profiling analysis relative to control; type: subcellular
T2 sequence (whole entry): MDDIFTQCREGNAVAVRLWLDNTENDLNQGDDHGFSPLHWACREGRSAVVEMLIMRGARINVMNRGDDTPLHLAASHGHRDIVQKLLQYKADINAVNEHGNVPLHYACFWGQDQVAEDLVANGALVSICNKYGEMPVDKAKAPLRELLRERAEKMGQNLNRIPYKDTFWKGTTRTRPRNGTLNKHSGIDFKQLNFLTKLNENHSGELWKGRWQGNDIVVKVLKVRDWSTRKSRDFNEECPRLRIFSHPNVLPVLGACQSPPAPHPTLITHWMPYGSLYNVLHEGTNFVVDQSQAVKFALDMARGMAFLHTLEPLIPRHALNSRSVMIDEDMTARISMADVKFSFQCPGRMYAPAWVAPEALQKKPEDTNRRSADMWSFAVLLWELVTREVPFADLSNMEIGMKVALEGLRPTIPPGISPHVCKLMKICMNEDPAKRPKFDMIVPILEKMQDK

[15] = target: Dual specificity mitogen-activated protein kinase kinase 1 (Homo sapiens) (UniProt Q02750); test: Inhibition of MAP2K1 Lys2 labeling site harbouring IMHRDVKPSNILVNSR in human Huh-7 cell lysate at 1 uM by KiNativ Profiling analysis relative to control; type: subcellular
[16] = target: Cyclin-dependent kinase 8 (Homo sapiens) (UniProt P49336); test: Inhibition of CDK8 Lys2 labeling site in human Huh-7 cells at 1 uM by KiNativ Profiling analysis relative to control; type: cell-based
[17] = target: Casein kinase I isoform delta (Homo sapiens) (UniProt P48730); test: Inhibition of CK1d Lys2 labeling site in human Huh-7 cells at 1 uM by KiNativ Profiling analysis relative to control; type: cell-based
[18] = target: Cyclin-dependent kinase 17 (Homo sapiens) (UniProt Q00537); test: Inhibition of PCTAIRE2 Lys1 labeling site in human Huh-7 cells at 1 uM by KiNativ Profiling analysis relative to control; type: cell-based
[19] = target: Ribosomal protein S6 kinase alpha-5 (Homo sapiens) (UniProt O75582); test: Inhibition of C-terminal RPS6KA5 kinase domain 2 (unknown origin) at 1 uM by Ambit Kinomescan binding assay relative to control
[20] = target: Tyrosine-protein kinase receptor UFO (Homo sapiens) (UniProt P30530); test: Inhibition of AXL ACT labeling site in human A-375 cells at 5 uM by KiNativ Profiling analysis relative to control; type: cell-based
[21] = target: Cyclin-dependent kinase 1 (Homo sapiens) (UniProt P06493); test: Inhibition of CDC2 Lys2 labeling site harbouring VLHRDLKPQNLLIDDKGTIK in human A-375 cells at 0.5 uM by KiNativ Profiling analysis relative to control; type: cell-based
Chain of Cyclin-dependent kinase 1 (Homo sapiens) (P06493 whole entry, looked up): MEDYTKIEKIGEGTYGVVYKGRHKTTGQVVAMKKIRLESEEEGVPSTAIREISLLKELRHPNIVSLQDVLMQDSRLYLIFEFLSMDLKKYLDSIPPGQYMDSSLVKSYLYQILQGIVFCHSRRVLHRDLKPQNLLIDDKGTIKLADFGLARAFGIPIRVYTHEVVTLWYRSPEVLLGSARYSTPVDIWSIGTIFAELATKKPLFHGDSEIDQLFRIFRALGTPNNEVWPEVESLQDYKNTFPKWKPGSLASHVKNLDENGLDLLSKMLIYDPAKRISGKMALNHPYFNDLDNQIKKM

Chain of Serine/threonine-protein kinase Nek7 (Homo sapiens) (Q8TDX7 whole entry, looked up): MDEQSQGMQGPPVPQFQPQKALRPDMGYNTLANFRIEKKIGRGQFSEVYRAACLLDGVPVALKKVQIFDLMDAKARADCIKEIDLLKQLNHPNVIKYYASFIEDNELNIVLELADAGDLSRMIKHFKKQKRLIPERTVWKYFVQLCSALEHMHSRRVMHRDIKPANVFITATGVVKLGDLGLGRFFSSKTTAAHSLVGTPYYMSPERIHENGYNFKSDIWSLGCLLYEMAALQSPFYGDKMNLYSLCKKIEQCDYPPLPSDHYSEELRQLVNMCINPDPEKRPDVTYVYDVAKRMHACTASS
Chain of Tyrosine-protein kinase ABL2 (P42684 whole entry): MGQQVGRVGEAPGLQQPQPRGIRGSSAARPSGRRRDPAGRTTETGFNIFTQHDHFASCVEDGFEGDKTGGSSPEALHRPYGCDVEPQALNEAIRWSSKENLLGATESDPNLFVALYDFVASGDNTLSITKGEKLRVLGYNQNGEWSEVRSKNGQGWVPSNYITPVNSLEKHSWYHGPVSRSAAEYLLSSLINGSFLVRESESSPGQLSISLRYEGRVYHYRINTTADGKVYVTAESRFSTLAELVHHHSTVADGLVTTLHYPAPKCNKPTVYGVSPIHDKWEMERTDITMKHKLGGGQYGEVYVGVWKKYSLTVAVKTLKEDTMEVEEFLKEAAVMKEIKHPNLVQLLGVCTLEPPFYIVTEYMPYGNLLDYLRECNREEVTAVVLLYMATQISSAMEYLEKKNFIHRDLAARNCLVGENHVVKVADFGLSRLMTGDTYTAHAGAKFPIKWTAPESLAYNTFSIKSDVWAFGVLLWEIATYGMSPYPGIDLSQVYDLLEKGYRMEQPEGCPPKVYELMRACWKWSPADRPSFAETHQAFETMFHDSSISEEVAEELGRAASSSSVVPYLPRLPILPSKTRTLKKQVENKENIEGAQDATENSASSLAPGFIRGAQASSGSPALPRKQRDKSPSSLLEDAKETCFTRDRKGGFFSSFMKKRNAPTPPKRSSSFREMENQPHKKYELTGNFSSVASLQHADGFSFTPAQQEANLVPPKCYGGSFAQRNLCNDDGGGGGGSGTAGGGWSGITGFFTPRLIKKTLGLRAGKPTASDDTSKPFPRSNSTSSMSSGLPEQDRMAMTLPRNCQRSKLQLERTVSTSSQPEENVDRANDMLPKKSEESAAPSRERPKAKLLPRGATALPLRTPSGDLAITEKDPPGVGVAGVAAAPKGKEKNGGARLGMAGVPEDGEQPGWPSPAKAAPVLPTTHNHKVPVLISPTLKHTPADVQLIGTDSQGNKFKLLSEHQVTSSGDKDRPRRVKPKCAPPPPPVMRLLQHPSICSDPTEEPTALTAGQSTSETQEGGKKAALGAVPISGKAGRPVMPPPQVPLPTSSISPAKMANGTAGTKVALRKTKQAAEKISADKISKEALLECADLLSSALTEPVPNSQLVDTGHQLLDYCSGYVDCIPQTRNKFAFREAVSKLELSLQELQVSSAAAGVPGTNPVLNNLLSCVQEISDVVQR
Chain of Mitogen-activated protein kinase kinase kinase kinase 4 (O95819 2-1239 limits assumed): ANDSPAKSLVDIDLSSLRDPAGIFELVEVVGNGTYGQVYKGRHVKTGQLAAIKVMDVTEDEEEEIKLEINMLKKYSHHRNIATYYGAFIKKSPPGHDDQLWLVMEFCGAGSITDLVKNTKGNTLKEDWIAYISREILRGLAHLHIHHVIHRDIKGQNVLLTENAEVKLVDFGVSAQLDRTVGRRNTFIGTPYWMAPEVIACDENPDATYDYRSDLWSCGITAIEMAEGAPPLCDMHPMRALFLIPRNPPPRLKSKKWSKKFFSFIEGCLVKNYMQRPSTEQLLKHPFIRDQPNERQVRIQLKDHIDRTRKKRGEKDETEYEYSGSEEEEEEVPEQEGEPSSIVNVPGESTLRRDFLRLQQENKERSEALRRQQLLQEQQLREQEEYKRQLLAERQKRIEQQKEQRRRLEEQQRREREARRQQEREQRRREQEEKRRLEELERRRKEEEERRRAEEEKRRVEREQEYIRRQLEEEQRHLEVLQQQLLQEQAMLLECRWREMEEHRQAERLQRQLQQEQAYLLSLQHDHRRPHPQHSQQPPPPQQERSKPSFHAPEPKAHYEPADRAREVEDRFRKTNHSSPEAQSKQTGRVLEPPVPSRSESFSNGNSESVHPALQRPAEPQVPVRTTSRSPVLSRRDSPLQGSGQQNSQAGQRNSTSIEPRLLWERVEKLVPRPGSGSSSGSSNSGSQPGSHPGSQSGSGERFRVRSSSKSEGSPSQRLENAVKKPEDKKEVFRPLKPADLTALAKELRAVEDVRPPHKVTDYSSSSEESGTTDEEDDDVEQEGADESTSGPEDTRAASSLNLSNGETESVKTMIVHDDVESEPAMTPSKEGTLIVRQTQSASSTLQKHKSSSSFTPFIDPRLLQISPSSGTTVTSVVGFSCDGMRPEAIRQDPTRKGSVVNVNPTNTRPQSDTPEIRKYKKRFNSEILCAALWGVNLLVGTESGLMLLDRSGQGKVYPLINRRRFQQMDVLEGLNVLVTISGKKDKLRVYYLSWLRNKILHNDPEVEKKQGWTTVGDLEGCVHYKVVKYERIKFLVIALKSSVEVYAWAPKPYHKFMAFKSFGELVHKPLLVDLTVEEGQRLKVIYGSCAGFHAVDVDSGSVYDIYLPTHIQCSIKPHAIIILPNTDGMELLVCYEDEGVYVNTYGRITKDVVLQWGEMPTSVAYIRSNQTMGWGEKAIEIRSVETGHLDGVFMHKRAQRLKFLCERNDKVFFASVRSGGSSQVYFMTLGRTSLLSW
Chain of Tyrosine-protein kinase receptor UFO (Homo sapiens) (P30530 whole entry): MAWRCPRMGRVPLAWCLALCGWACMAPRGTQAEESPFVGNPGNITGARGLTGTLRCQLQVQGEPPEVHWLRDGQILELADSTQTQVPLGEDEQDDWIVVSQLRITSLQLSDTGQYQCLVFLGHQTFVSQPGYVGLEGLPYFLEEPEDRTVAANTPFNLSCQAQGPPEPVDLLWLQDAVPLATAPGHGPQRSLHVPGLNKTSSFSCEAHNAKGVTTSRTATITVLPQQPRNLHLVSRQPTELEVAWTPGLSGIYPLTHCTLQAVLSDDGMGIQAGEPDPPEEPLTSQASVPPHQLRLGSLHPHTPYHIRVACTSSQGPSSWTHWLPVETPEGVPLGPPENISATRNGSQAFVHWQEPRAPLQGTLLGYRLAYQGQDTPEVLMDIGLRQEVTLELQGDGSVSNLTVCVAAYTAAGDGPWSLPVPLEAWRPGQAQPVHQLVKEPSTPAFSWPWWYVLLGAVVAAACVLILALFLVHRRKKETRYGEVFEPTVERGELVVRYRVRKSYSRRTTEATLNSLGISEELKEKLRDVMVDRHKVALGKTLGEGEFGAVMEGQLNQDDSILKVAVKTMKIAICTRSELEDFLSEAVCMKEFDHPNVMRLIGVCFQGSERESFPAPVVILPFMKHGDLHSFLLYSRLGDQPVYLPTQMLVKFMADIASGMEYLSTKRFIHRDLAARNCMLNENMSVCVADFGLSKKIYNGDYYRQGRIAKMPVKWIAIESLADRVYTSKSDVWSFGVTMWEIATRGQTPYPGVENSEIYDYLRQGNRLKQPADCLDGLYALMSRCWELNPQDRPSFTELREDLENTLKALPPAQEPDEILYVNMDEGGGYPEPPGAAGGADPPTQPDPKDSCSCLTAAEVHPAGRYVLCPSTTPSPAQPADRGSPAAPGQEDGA
Chain of Serine/threonine-protein kinase 38-like (Homo sapiens) (Q9Y2H1 2-464 limits assumed): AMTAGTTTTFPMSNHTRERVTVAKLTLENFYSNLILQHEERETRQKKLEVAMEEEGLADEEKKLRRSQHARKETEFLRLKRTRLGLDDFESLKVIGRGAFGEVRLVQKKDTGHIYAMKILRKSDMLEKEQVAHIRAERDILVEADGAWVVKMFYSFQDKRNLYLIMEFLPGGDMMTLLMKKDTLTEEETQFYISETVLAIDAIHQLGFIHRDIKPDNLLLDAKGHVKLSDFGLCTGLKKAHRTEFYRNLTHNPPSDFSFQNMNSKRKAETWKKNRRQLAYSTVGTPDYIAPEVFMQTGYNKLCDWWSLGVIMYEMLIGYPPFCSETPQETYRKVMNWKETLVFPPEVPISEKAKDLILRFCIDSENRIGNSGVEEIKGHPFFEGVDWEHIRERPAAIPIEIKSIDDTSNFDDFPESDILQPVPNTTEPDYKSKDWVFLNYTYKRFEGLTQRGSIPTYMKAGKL
Chain of Cyclin-dependent kinase 8 (Homo sapiens) (P49336 whole entry, canonical isoform): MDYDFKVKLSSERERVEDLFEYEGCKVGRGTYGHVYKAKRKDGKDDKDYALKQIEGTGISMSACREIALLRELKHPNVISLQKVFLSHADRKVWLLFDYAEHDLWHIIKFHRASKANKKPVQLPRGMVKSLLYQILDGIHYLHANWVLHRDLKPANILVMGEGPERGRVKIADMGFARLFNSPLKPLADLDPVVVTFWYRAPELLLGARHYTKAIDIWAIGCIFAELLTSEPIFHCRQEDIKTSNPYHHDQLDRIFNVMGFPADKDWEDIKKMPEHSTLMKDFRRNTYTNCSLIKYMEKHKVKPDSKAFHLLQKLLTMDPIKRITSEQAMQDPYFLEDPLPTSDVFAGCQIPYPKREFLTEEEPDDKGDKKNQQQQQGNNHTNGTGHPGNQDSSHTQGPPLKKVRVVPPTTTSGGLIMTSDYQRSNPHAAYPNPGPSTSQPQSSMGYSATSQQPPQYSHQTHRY

In the case of `CCN1CCN(Cc2ccc(NC(=O)c3ccc(C)c(Oc4ccnc5[nH]ccc45)c3)cc2C(F)(F)F)CC1`, the IC50 [1] is reported as 75.2 nM, the inhibition [2] is reported as “inactive” and the inhibition [3] is reported as “inactive”. It also gave an inhibition [4] of 36.5%, an inhibition [5] of 16.9% and an inhibition [6] of 70.8%. The inhibition [7] was 49.4%, the inhibition [8] was 47.1% and the inhibition [9] was 14.2%. It also gave an inhibition [10] of 6%, an inhibition [11] of -2.8% and an inhibition [12] of 11.5%.

`CNc1cc(Oc2cc(C(=O)Nc3cc(N4CCN(C)CC4)cc(C(F)(F)F)c3)ccc2C)ncn1` gave an inhibition [13] of 16.1%, an inhibition [14] of -6.9% and an inhibition [15] of 23.6%. For the same compound, the inhibition [16] was 25.8%, the inhibition [17] was 39.1% and the inhibition [18] was 12%.

`CCN1CCN(Cc2ccc(NC(=O)c3ccc(C)c(/C=C/c4cnc5[nH]ccc5c4OC)c3)cc2C(F)(F)F)CC1` gave an IC50 [1] of 51.5 nM, an inhibition [19] of 100% and an inhibition [20] of -6.1%. It also gave an inhibition [21] of 5.8%, an inhibition [6] of 48.1% and an inhibition [7] of 8.3%. For the same compound, the inhibition [8] was 2.9% and the inhibition [9] was 6.8%.
